In experiment [1] the target is T1, hDGKzeta(1-928)-N-His (DGKZ) (Homo sapiens, UniProt Q13574).
T1 construct: hDGKzeta(1-928)-N-His; His (N)
Put plainly: In vitro DGK inhibition assay (ADP-Glo, in house), DGK zeta. Type of experiment: biochemical. The settings on record: isomer A; 2 nM DGK ζ, 50 μM ATP, 125 μM DLG in liposomes, 1 hour reaction; read-out: DGKzeta ADP Glo assay IC50. In short, it runs like this: (§1)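 Sf21-expressed full-length His-tagged enzymes (DGKA 4 nM, DGKZ 2 nM) phosphorylated 125 μM DLG in PS/PC liposomes with ATP at 25 μM (DGKA) or 50 μM (DGKZ). After 1 h, ADP was measured by ADP-Glo luminescence. Compounds: 11-point 1:3 dilutions from 10 mM top concentration.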

Experiment [2] concerns the target T2, hDGKalpha(1-735)-N-His (DGKA) (Homo sapiens, UniProt P23743).
T2 construct: hDGKalpha(1-735)-N-His; His (N)
Put plainly: In vitro DGK inhibition assay (ADP-Glo, in house), DGK alpha. The settings on record: isomer A; 4 nM DGK α, 25 μM ATP, 125 μM DLG in liposomes, 1 hour reaction; read-out: DGKalpha ADP Glo assay IC50. Type of experiment: biochemical. An outline of the steps:
as §1

The test system of experiment [3] is primary human T-cells. Kind of experiment: IL2 secretion measurements in CD3-stimulated T-cells. As to conditions: Homo sapiens, T-cell, isomer A; for EC50: CD3 antibody-stimulated T-cells, IL2 in supernatant after 24 hours, read-out: Tcell IL2 CD3 EC50; for Emax: CD3 condition, 24 hours, 20 μM reference compound A1 = 100%, DMSO neutral control, read-out: Emax IL2 (% activation). Type of experiment: cell-based. As for the experimental part:
As readouts for T-cell activation, IL2 secretion after 24 hours and proliferation after 5 days was measured. Increases in IL2 secretion and proliferation upon compound treatment were assessed as the % of the maximum of reference compound A1. WO 2016/139181 discloses reference compound A1 as example 70. As a counter screen and to make sure that no unwanted TCR-independent activation was triggered, PBS conditions were run for all compounds.
Expanded primary human T-cells were thawed and cultured in RPMI 1640 (Gibco, #61870-010)+5% human serum (HS, Sigma, #H3667)+1 mM Sodium Pyruvate (Gibco, #11360-039)+50 μM 2-mercaptoethanol (Gibco, #31350-010) and lx Pen-Strep (Life Technologies, #15140122) medium at density of 2 Mio/ml for 3 hours in 5% CO2, 37° C. and 95% humidity. For coating of plates, […] or PBS++ with CD3 antibody (concentration depending on donor and determined by CD3 titrations) was added 100 μl/well to Poly-D Lysine coated 96-well plates. Plates were sealed and incubated at room temperature for 3 hours on a table-top rocking platform. After incubation, plates were washed once with PBS−− and filled with 40 μl/well culture medium only. Compounds were then added (see next section) to medium only plates. After 3 hours of culturing the T-cells, cells were filtered through a cell strainer (Miltenyi Biotech, #130-041-407), counted again and concentration was adjusted to 1.25 Mio/ml.
Cells were then seeded 80 μl/well to the 40 μl/well including dispensed compounds according to plate layout. By adding cells, compounds were further diluted 1:3, and resulting in 100k cells/120 μl/well. After 24 hours 40 μl of supernatant was collected carefully from the top while not disturbing the cells and transferred into a round bottom 96 well plate. Collected and frozen supernatant was used for detection of IL2 using the IL-2 Human ProQuantum Immunoassay Kit (Invitrogen) or using the Human IL-2 ELISA Kit (Thermo Fisher).
Compounds were added in a 5 or 6 pt dose response with the Tecan D300e Digital Dispenser, all conditions 3 times more concentrated than the end-concentration, since cells are added afterwards (80 μl cells to 40 μl prepared medium with treatment). The DR was starting at 20 μM or 10 μM final top concentration and a dilution factor of 3.333. The positive control was the reference compound A1 that was added in a dose response as well, additionally to 3 wells of only 20 μM representing the positive stimulator control. All wells were normalized with DMSO to a final concentration of 0.6% (0.2% end-concentration).
The immunoassay is done following the manufacturer's manual (Invitrogen, #A35603).
Additional information: For the immunoassay, MicroAmp™ EnduraPlate™ Optical 384-Well plates are used. Frozen supernatant is thawed and centrifuged for 5 minutes at 1000×g, both steps at 4° C. After centrifugation, required sample amount is taken from the top, and in a separate LightCycler V-bottom plate (working plate) diluted with assay dilution buffer, dilution factor depending on the PBS or CD3 condition but at least 1:3. IL-2 standard and blanks are prepared in the same V-bottom plate, standard with a range of […] (extended version). After preparation, […] of sample dilutions or standard/blanks are transferred to the optical 384-well plate (assay plate) and the 10 μl reaction protocol is being followed. For measurement, the QuantStudio 12K Flex system is used. Raw data is extracted and IL-2 concentrations are calculated with the Thermo Fisher online app (apps.thermofisher.com/apps/proquantum).
ELISA is done following the manufacturer's manual (Thermo Fisher Scientific, #88-7025-88).
Additional information: For the ELISA Nunc MaxiSorp 96 well plates are used. Frozen supernatant is thawed and centrifuged for 5 minutes at 1000×g, both steps at 4° C. After that, required sample amount is taken from the top, and in a separate V-bottom plate diluted with ELISA diluent, dilution factor depending on the PBS or CD3 condition. […]

Each structure is given as a SMILES string. Where only a bound is given, the exact number is not on record here.

T2 sequence (P23743 whole entry): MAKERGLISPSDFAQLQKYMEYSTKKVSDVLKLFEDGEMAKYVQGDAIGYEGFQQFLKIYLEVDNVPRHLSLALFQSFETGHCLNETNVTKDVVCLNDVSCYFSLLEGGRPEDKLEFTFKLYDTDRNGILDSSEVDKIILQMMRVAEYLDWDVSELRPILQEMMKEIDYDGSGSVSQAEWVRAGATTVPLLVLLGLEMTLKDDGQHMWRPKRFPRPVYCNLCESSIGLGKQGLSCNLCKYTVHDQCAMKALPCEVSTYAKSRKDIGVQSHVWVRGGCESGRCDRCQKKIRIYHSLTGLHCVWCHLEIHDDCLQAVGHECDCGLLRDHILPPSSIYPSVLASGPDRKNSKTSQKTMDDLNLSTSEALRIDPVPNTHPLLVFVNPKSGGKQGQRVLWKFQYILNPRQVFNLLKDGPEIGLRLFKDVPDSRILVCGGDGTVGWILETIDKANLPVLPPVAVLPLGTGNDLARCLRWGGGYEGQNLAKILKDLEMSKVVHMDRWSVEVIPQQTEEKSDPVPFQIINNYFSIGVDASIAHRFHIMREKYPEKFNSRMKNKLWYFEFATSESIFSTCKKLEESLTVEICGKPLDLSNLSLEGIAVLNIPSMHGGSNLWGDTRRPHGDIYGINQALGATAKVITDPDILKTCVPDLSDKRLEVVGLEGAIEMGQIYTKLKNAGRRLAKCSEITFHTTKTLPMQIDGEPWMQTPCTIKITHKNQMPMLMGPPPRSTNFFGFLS
T1 sequence (Q13574 whole entry): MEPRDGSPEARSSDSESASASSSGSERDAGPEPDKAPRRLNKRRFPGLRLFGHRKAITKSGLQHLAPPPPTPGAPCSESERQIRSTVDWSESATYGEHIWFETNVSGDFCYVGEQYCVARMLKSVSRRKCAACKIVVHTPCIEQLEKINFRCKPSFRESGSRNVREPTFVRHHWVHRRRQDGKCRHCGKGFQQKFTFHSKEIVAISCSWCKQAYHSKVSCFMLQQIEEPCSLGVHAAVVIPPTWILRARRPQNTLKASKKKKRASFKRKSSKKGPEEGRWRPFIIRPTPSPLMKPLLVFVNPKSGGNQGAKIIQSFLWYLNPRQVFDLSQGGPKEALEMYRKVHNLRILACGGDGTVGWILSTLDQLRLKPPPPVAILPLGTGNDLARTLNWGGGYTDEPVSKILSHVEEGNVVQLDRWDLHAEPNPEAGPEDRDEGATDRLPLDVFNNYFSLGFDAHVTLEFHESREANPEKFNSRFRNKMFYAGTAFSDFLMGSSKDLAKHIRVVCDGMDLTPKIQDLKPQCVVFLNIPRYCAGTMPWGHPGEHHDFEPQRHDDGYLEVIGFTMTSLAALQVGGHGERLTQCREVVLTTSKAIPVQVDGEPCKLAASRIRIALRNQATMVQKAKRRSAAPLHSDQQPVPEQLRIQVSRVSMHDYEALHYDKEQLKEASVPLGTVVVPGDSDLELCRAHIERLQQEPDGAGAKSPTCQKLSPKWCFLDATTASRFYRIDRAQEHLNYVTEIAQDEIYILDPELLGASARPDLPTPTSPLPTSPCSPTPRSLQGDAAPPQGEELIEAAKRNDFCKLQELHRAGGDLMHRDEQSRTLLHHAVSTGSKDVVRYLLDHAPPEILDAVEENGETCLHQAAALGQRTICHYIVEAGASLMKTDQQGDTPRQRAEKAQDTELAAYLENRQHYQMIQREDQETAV

The IC50 is the concentration that inhibits the measured activity by half. Usually EC50 stands for the concentration at which the effect is half-maximal. As usually defined, the Emax is the maximal effect, on the per cent scale that the assay sets. As for `CC(C)(c1nnc(-c2cc3c(cc2F)C(F)(F)C[C@@H](N)C(=O)N3Cc2ccc(-c3ccc(C(F)(F)F)cn3)cc2)o1)S(C)(=O)=O` (single isomer, unassigned) [Example 8], the IC50 in experiment [1] was found to be 16.1 µM. For the same compound, the half-maximal inhibitory concentration (IC50) in experiment [2] came out at 5.44 µM. Besides, in experiment [3], the concentration for a half-maximal effect (EC50) amounted to 0.373 µM and the Emax amounted to 69%.

For the compound `N[C@@H]1CC(F)(F)c2cc(F)c(-c3nnc(N4CCCC4)o3)cc2N(Cc2ccc(-n3cnc(C(F)(F)F)n3)cc2)C1=O` (single isomer, unassigned) [Example 21], the IC50 amounted to 11.8 µM in experiment [1] and 10.9 µM in experiment [2]. In addition, in experiment [3], the half-maximal effective concentration (EC50) was found to be 7.74 µM. Further, the maximum response (Emax) in experiment [3] came out at 63%.

In the case of `N[C@@H]1CC(F)(F)c2cc(F)c(-c3nnc(N4CCC(F)(F)C4)o3)cc2N(Cc2ccc(-n3cnc(C(F)(F)F)n3)cc2)C1=O` (single isomer, unassigned) [Example 22], the concentration for half-maximal inhibition (IC50) in experiment [1] came to 17.8 µM. Moreover, the half-maximal inhibitory concentration (IC50) in experiment [2] came out at 10.6 µM. In experiment [3], the concentration giving a half-maximal response (EC50) is more than 2.73 µM and the maximal effect (Emax) was found to be 31%.

In the case of `CC(C)(c1nnc(-c2cc3c(cc2F)C(F)(F)CC(N)C(=O)N3Cc2ccc(Oc3ccccc3)cc2)o1)S(C)(=O)=O` (racemic) [Example 5, (3S)-3-amino-5,5,7-trifluoro-8-[5-(1-methyl-1-methylsulfonyl-ethyl)-1,3,4-oxadiazol-2-yl]-1-[(4-phenoxyphenyl)methyl]-3,4-dihydro-1-benzazepin-2-one and (3R)-3-amino-5,5,7-trifluoro-8-[5-(1-methyl-1-methylsulfonyl-ethyl)-1,3,4-oxadiazol-2-yl]-1-[(4-phenoxyphenyl)methyl]-3,4-dihydro-1-benzazepin-2-one], in experiment [1], the concentration for half-maximal inhibition (IC50) worked out at 2.4 µM. For the same compound, the IC50 in experiment [2] worked out at 16.9 µM. In experiment [3], the EC50 is 2.33 µM and the Emax was found to be 165%.

For the compound `CC(C)(C#N)c1nnc(-c2cc3c(cc2F)C(F)(F)C[C@@H](N)C(=O)N3Cc2ccc(-c3ccc(C(F)F)cn3)cc2)o1` (single isomer, unassigned) [Example 40], the IC50 in experiment [1] came out at 2.5 µM. Also, the IC50 in experiment [2] amounted to 15.3 µM. For the same compound, in experiment [3], the EC50 is more than 10 µM and the Emax was 27%.

Take `CC(C)(C#N)c1nnc(-c2cc3c(cc2F)C(F)(F)C[C@@H](N)C(=O)N3Cc2ccc(-c3cc(C(F)(F)F)ccn3)cc2)o1` (single isomer, unassigned) [Example 27]: the IC50 was 1.82 µM in experiment [1] and 24.6 µM in experiment [2]. In addition, the concentration giving a half-maximal response (EC50) in experiment [3] is more than 2.73 µM. Besides, the Emax in experiment [3] came out at 181%.

With `CC(C)(C#N)c1nnc(-c2cc3c(cc2F)C(F)(F)C[C@@H](N)C(=O)N3Cc2ccc(-n3ccc(C(F)(F)F)n3)cc2)o1` (single isomer, unassigned) [Example 30], the 50% inhibitory concentration (IC50) in experiment [1] came out at 10.2 µM. The 50% inhibitory concentration (IC50) in experiment [2] was found to be 26.4 µM. Also, in experiment [3], the EC50 amounted to 2.61 µM and the maximum response (Emax) was 77%.

Take `N[C@@H]1CC(F)(F)c2cc(F)c(-c3nnc(N4CCCC4)o3)cc2N(Cc2ccc(-c3noc(C(F)(F)F)n3)cc2)C1=O` (single isomer, unassigned) [Example 14]: the half-maximal inhibitory concentration (IC50) in experiment [1] turned out to be 17.9 µM. Also, the IC50 in experiment [2] was more than 62.5 µM. Also, in experiment [3], the EC50 worked out at 0.982 µM and the maximal effect (Emax) came out at 239%.

Turning to `COC(=O)N1CC2CC(c3nnc(-c4cc5c(cc4F)C(F)(F)C[C@@H](N)C(=O)N5Cc4ccc(-c5ccc(C(F)(F)F)cn5)cc4)o3)(C2)C1` (single isomer, unassigned) [Example 35], the IC50 in experiment [1] is more than 19 µM. The 50% inhibitory concentration (IC50) in experiment [2] was more than 19 µM. In experiment [3], the EC50 was 0.216 µM and the Emax worked out at 94%.

Consider `CC(C)(c1nnc(-c2cc3c(cc2F)C(F)(F)C[C@@H](N)C(=O)N3Cc2ccc(-c3ccc(C(F)(F)F)cc3)cc2)o1)S(C)(=O)=O` (single isomer, unassigned) [Example 32], for which, in experiment [1], the IC50 turned out to be 33.8 µM. Also, the IC50 in experiment [2] amounted to 51.3 µM. In addition, in experiment [3], the EC50 was found to be 0.6 µM and the Emax was 27%.

For `CC(C)(c1nnc(-c2cc3c(cc2F)C(F)(F)C[C@@H](N)C(=O)N3Cc2ccc(-c3noc(C(F)(F)F)n3)cc2)o1)S(C)(=O)=O` (single isomer, unassigned) [Example 16], the IC50 in experiment [1] came to 14.9 µM. Moreover, in experiment [2], the half-inhibitory concentration (IC50) was 13.2 µM. For the same compound, in experiment [3], the EC50 was determined as 1.46 µM and the Emax came out at 183%.

Turning to `CC(C)(c1nnc(-c2cc3c(cc2F)C(F)(F)C[C@@H](N)C(=O)N3Cc2ccc(-n3cnc(C(F)(F)F)n3)cc2)o1)S(C)(=O)=O` (single isomer, unassigned) [Example 23], the IC50 in experiment [1] came to 15.4 µM. Moreover, the IC50 in experiment [2] worked out at 14.1 µM. In addition, in experiment [3], the half-maximal effective concentration (EC50) is more than 2.73 µM and the maximal response (Emax) is 42%.

For `COc1ccc(-c2ccc(CN3C(=O)[C@H](N)CC(F)(F)c4cc(F)c(-c5nnc(C(C)(C)S(C)(=O)=O)o5)cc43)cc2)nc1` (single isomer, unassigned) [Example 39], in experiment [1], the half-maximal inhibitory concentration (IC50) amounted to 38.8 µM. Further, the IC50 in experiment [2] stood at 44.4 µM. Further, in experiment [3], the concentration for a half-maximal effect (EC50) was more than 10 µM and the Emax amounted to 35%.

Take `CC(C)(C#N)c1nnc(-c2cc3c(cc2F)C(F)(F)C[C@@H](N)C(=O)N3Cc2ccc(-c3ccc(OC(F)F)cn3)cc2)o1` (single isomer, unassigned) [Example 41]: the concentration for half-maximal inhibition (IC50) in experiment [1] came out at 8.22 µM. Besides, in experiment [2], the 50% inhibitory concentration (IC50) amounted to 24 µM. In addition, in experiment [3], the EC50 was 0.884 µM and the maximum response (Emax) came out at 131%.

Source of the values: patent US20250236614A1, “BICYCLIC TETRAHYDROAZEPINE DERIVATIVES” (Hoffmann-La Roche Inc., priority 2022, published 2025).
